Experiment in all cases: NCI tumour cell line growth inhibition, 48 h
Assay [1] deals with A549 NSCLC.
For assay [2], the system named is K-562 leukemia.
Assay [3] relates to UACC-257 melanoma.
For assay [4], the system named is HOP-62 NSCLC.
For assay [5], the system named is 786-0 renal.
The subject of assay [6] is IGROV1 ovarian.
Assay [7] concerns UO-31 renal.
For assay [8], the system named is SN12C renal.
Assay [9] concerns OVCAR-3 ovarian.
Assay [10] has as its system SF-539 CNS.

Molecules are shown by their SMILES. “And” between values parts separate entries of the source, which are not always exact repeats. Identical values can stand only once.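 Protocol summary: plate cells (96-well), add compound at 5 concentrations, incubate 48 h, interpolate endpoints linearly. Abbreviation: GI50, concentration required for 50% inhibition of growth. At the TGI there is no net growth.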

In the case of `C[C@@H]1C=C(CCCCCCCCCCC[C@H](O)[C@@H]2CCC(=O)O2)C(=O)O1`, the GI50 was 38.1 µM in assay [1]; 20.4 µM in assay [2]; 43.2 µM in assay [3]; 40.2 µM in [4]; 23.6 µM in assay [5]; 13.7 µM in assay [6]. Moreover, the GI50 in assay [7] was 20.1 µM; in [8], 25.3 µM; in assay [9], 16.4 µM; in assay [10] it was 38.8 µM. The TGI in assay [1] was greater than 100 µM; in assay [2] it was 56.7 µM; in assay [3], greater than 100 µM; in [4] it was greater than 100 µM; in assay [5], greater than 100 µM; in [6] it was 67.9 µM. Further, the TGI in assay [7] was 55.6 µM; in [8] it was 82.8 µM; in assay [9], 44.7 µM; in assay [10], greater than 100 µM.
Turning to `COC(=O)C1CC(C(=O)OC)c2nc3cc(C)ccc3nc21` (stereo unspecified), the TGI in assay [1], in [2], in assay [3], in assay [4], in [5] and in [6] was greater than 100 µM in each case. In addition, the TGI in assay [7], in assay [8], in assay [9] and in assay [10] was greater than 100 µM in each case.
For the molecule `O=C(O)c1cc2ccccc2c(O)c1O`, the TGI is 38.5 µM in [1]; greater than 58.8 µM in [2]; 23.1 µM in assay [3]; 33 µM in [4]; 27.6 µM in assay [5]; 34.7 µM in assay [6]. The TGI in assay [7] worked out at 35.4 µM; in [8], 31.5 µM; in assay [9], 28.9 µM; in assay [10], 38.1 µM.
For `COC(=O)C(CCS(=O)(=O)CC(=O)C(=O)Nc1cccc(C(C)=O)c1)C(=O)OC`, the TGI in assay [1], in [2], in assay [3], in [4], in assay [5] and in [6] was greater than 100 µM throughout. Moreover, the TGI in [7], in [8], in assay [9] and in assay [10] was greater than 100 µM throughout.
In the case of `CC(=O)OC1C(=O)C(O)C(C)OC1O[C@@H]1C[C@@]2(C)[C@@H]3CC=C4[C@@H](C[C@H](O)C(=O)C4(C)C)[C@]3(C)C(=O)C[C@]2(C)[C@H]1[C@@](C)(O)C(=O)/C=C/C(C)(C)O` (stereo partly specified), the TGI in assay [1] is greater than 10 µM; in assay [2], greater than 10 µM; in assay [3], 7.05 µM; in [4] it was 5.42 µM; in assay [5], 4.64 µM; in assay [6], 4.62 µM. The TGI in [7] is 4.95 µM; in assay [8], greater than 10 µM; in assay [9], 7.05 µM; in assay [10], 1.97 µM.
As for `C=C1[C@@H](C)[C@H]2[C@H](Cc3ccccc3)NC(=O)[C@]23OC(=O)/C=C/[C@H](O)CCC[C@@H](C)C/C=C/[C@H]3[C@@H]1O`, the TGI in [1] is greater than 97 µM; in assay [2], greater than 100 µM; in [3], 59.9 µM; in assay [4], 15 µM; in [5] it was greater than 100 µM; in [6], 78.9 µM. The TGI was 4.12 µM in assay [7], greater than 100 µM in [8], 91.4 µM in assay [9] and 43.8 µM in assay [10].
Take `Clc1ccc(Cl)c2[s+]snc12`: the TGI in [1] was greater than 100 µM; in assay [2], greater than 67.9 µM; in assay [3], greater than 100 µM; in assay [4], greater than 100 µM; in [5], greater than 56.1 µM; in [6], greater than 100 µM. Also, the TGI in assay [7], in assay [8], in [9] and in assay [10] was greater than 100 µM each time.
With `C(=N\Nc1ccccn1)/c1ccccn1`, the GI50 in [1] was 0.501 µM; in assay [2], 0.412 µM; in [3], 0.453 µM; in assay [4] it was 0.38 µM; in assay [5], 0.301 µM; in [6], 0.355 µM. In addition, the GI50 in assay [7] is 0.267 µM; in [8], 0.443 µM; in [9] it was 0.286 µM; in [10], 0.333 µM. The TGI in assay [1] is greater than 100 µM; in [2], greater than 100 µM; in assay [4], greater than 100 µM; in assay [6], greater than 100 µM; in assay [7], greater than 34.1 µM; in assay [8], greater than 100 µM. In assay [10], this molecule showed a TGI of 2.31 µM.
With `CCN(Cc1cccc(OC)c1)c1ccc(CO)c(Cl)c1`, the GI50 in assay [1] was 2.06 µM; in [2], 1.92 µM; in [3], 0.121 µM; in [4], 3.23 µM; in assay [5], 12.4 µM; in assay [6], 0.078 µM. Besides, the GI50 in assay [7] is 8.4 µM; in [8], 12.9 µM; in assay [9] it was 0.477 µM; in [10], 19 µM. Further, the TGI in assay [1] was 27.7 µM; in assay [2], greater than 86.5 µM; in [3], 0.295 µM; in [4], 39.2 µM; in [5] it was 38.5 µM; in [6] it was 0.833 µM. For the same molecule, the TGI in assay [7] stood at 45.1 µM; in assay [8], 32.1 µM; in assay [9], 4.34 µM; in assay [10], 40.5 µM.
As for `CCCN(CCCCC(NC(C)=O)C(=O)NCc1ccccc1)C(=O)NCCCl` (stereo unspecified), the TGI in [1], in [2], in assay [3], in [4], in assay [5] and in assay [7] was greater than 100 µM throughout. In addition, the TGI in assay [8], in assay [9] and in assay [10] was greater than 100 µM each time.
`Cc1ccc(C(CN(C)C)C(=O)c2ccccc2)cc1` (stereo unspecified): the GI50 in assay [1] is 16.7 µM; in assay [2] it was 1.37 µM; in [3] it was 5.74 µM; in assay [4], 12.2 µM; in [5], 2.12 µM; in [6], 3.62 µM. Moreover, the GI50 in [7] is 1.86 µM; in assay [8] it was 3.59 µM; in assay [9] it was 1.86 µM; in assay [10], 3.09 µM. Moreover, the TGI is 38 µM in assay [1]; 7.82 µM in assay [2]; 19.2 µM in [3]; 27.5 µM in [4]; 4 µM in [5]; 11.5 µM in assay [6]. For the same molecule, the TGI in assay [7] came out at 3.86 µM; in [8], 11.5 µM; in assay [9] it was 3.55 µM; in assay [10], 10.7 µM.
As to `CSc1nc(NC2OCC(OC(C)=O)C(OC(C)=O)C2OC(C)=O)c2c(OC(C)=O)c(C)c(=O)oc2n1` (stereo unspecified), the TGI in assay [1], in assay [2], in assay [3], in [4], in [5] and in [6] was greater than 100 µM throughout. In addition, the TGI in assay [7], in assay [8], in assay [9] and in [10] was greater than 100 µM throughout.
Consider `CC(=O)Nc1ccc(C(=O)N2N=C(C)/C(=C/c3ccccc3O)C2=O)cc1`, for which the TGI in assay [1], in assay [2], in [3], in assay [4], in assay [5] and in assay [7] was greater than 100 µM throughout. In addition, the TGI in [8], in [9] and in assay [10] was greater than 100 µM each time.
With `Cc1ccc(C(=O)Nc2ccc(CN3CCN(C)CC3)c(C(F)(F)F)c2)cc1C#Cc1cnc(N)cc1C#N`, the GI50 in [1] was 0.233 µM; in assay [2] it was 0.005 µM; in assay [3], 0.132 µM; in assay [4], 0.298 µM; in assay [5], 0.162 µM; in assay [6] it was 0.0265 µM. Further, the GI50 was 0.0949 µM in [7], 0.0918 µM in assay [8], 0.211 µM in assay [9] and 0.277 µM in assay [10]. For the same molecule, the TGI in assay [1] was 0.958 µM; in [2], 6.12 µM; in assay [3], 0.834 µM; in [4], 2.05 µM; in assay [5], 0.826 µM; in assay [6], 0.276 µM. Moreover, the TGI in [7] was determined as 0.442 µM; in assay [8], 0.733 µM; in [9] it was 1.01 µM; in assay [10], 0.926 µM.
Turning to `COCCn1cc(-c2csc(-c3c[nH]c4ccccc34)n2)c2cccnc21`, the GI50 in assay [1] was 7.1 µM; in assay [2], 2.8 µM; in [3], greater than 100 µM; in assay [4] it was 2.82 µM; in [5] it was 6.25 µM; in assay [6], 2.53 µM. The GI50 is 4.15 µM in assay [7], greater than 100 µM in assay [8], 2.94 µM in [9] and 5.91 µM in [10]. Moreover, the TGI in assay [1], in [2], in assay [3], in [4], in assay [5] and in assay [6] was greater than 100 µM in each case. The TGI in assay [7], in assay [8], in assay [9] and in [10] was greater than 100 µM throughout.
For the molecule `O=C(O)C(=Cc1ccnc2ccccc12)C(=O)O`, the TGI in [1], in assay [2], in assay [3], in [4], in [5] and in [6] was greater than 100 µM each time. The TGI in [8], in [9] and in assay [10] was greater than 100 µM in each case.
As for `Cc1cccc(-c2nc3c(C(=O)NCCN(C)C)cccc3[nH]2)c1`, the TGI in assay [1] is 7.7 µM; in assay [2], greater than 100 µM; in assay [3] it was 3.08 µM; in assay [4], 3.46 µM; in assay [5] it was 7.88 µM; in [6] it was 4.06 µM. The TGI in [7] was determined as 5.05 µM; in assay [8] it was 3.2 µM; in [9] it was 6.55 µM; in [10] it was 2.04 µM.
As to `CCOc1ccc(N=Cc2cccc3cccnc23)cc1`, the TGI in assay [1] is greater than 100 µM; in [2], 82.3 µM; in [3], greater than 100 µM; in [4], greater than 100 µM; in assay [5] it was greater than 100 µM; in assay [6], greater than 100 µM. Besides, the TGI in [8], in assay [9] and in assay [10] was greater than 100 µM in each case.
In the case of `N#CC(=S)Nc1cccc(Cl)c1`, the TGI in [1] is greater than 100 µM; in assay [2], greater than 100 µM; in assay [3] it was greater than 100 µM; in assay [4], greater than 100 µM; in assay [5], greater than 100 µM; in assay [6], 29.4 µM. Moreover, the figures for the TGI in assay [8], in [9] and in assay [10] were greater than 100 µM, 56.4 µM and 93.7 µM, respectively.
`COc1c(O)c2c(c3cc(C(=O)N4CCc5c4c(O)c(OC)c4[nH]c(C(=O)N6CC7CC78C6=CC(=O)c6[nH]cc(C)c68)cc54)[nH]c13)CCN2C(N)=O` (stereo unspecified): the TGI is 21.8 µM and 0.0594 µg/mL in [2]; 14.6 nM and 0.0745 µg/mL in [4]; greater than 100 µM in assay [6]; 5.75 nM and 3.41 µM and 0.103 µg/mL in assay [8]; 48.6 nM and > 100 µM and 0.0456 µg/mL in assay [9]; 12.1 nM and 897 nM and 0.007 µg/mL in [10]. Moreover, the GI50 in assay [3] is 1.34 µM; in assay [4], 2.51 nM and 0.0165 µg/mL; in [5], 0.0293 µM; in [6], 10.8 µM; in [7] it was 0.223 µM.
`N[C@@H](Cc1c[nH]c2ccccc12)C(=O)NC1CCN(C(=O)c2c[nH]c3ccccc23)CC1`: the GI50 is greater than 100 µM in assay [1]; greater than 100 µM in assay [2]; greater than 100 µM in assay [4]; 78.1 µM in assay [5]; 64.2 µM in assay [6]; greater than 100 µM in assay [7]. Also, the GI50 in [8], in assay [9] and in assay [10] was greater than 100 µM in each case. Besides, the TGI in [1], in assay [2], in assay [4], in [5], in assay [6] and in assay [7] was greater than 100 µM in each case. The TGI in [8], in [9] and in [10] was greater than 100 µM in each case.

Values taken from PubChem BioAssay (NCI).
